# Tested on: ChAT
# Assay: ChAT activity of brain tissues from SAMP8 mice
# Assay type: in vivo
# Procedure: The biochemical assays were conducted later (in 24 h) after behavioral testing. Eight rats in each group were anesthetized with ether and sacrificed. The brains were quickly removed and cleaned with ice-cold saline. Then the parietal cortex and hippocampus were isolated. For biochemical analysis, the tissues were weighed and homogenized in ice-cold saline with the proportion of 1:9 (w/v). Homogenization (IKA, Germany) was carried out for 2 min in an ice bath. After the homogenates were centrifuged at 2,000×g for 10 min at 4° C. (Sigma, Germany), the supernatant was used for analytical procedures. The levels of choline acetyltransferase (ChAT) SOD, and MDA activities were determined with commercial colorimetric assay kits (Nanjing Jiancheng Bioengineering Institute, China). The content of protein in the supernatant was determined by Bradford method using BSA as standard.
# SAMP8 were divided into three experimental groups randomly: one vehicle control group, and two dl-PHPB-treated groups (50, and 160 mg/kg). Drugs and vehicle were administered orally to SAMP8 mice for 35 days (one time/each day). The spatial learning and memory abilities of SAMP8 mice were detected by Morris water maze and DTT-2 jumping apparatus in 31-35 days. The testing was commenced at 40 min after drugs treated. The biochemical and pathology assays conducted later (in 24 h) after behavioral testing. […]
smiles,measurement,setting,value
"CCCCC(O)c1ccccc1C(=O)[O-].[K+] (racemic) [dl-PHPB, Potassium 2-(1-Hydroxypentyl)-benzoate]",ChAT activity in the hippocampus,"35 days, dose-dependent, P<0.05",significantly increased ChAT activity
same,ChAT activity in the cortex,"cortex, data not shown",did not significantly improve ChAT activity

# — patent US20110224300A1, “USE OF POTASSIUM 2-(a- HYDROXYPENTYL) BENZOATE IN THE MANUFACTURE OF MEDICAMENTS FOR PREVENTING AND/OR TREATING SENILE [sequence]” (Institute of Mataria Medica, Chinese Academy of Me, priority 2008, published 2011)
